In experiment [1] the test system is KP-4 cells. Description: Inhibitory activity test of KP-4 cells. The class given is cell-based. Conditions: Homo sapiens, 144 h incubation, read-out: KP-4 cell inhibitory activity IC50. Here is the method:
On day 1, cell seeding: after digestion of the cells with trypsin, the cells were resuspended to 1*10^4/mL with RPMI1640 complete medium (HyClone Company, Cat. No. SH30809.01) supplemented with 10% FBS (Gibco, 10099141C), mixed evenly, and added into the 96-well plate at 100 μL/well. The plate was put back to the incubator for the adherent growth of cells. On day 2, the addition of the compounds to be tested: 100 μL of the complete medium containing the compounds (the concentration of the compound in the medium was formulated as follows: 3-fold gradient dilution from 60 μM, 10 concentration gradients in total) was added, incubated for 144 hours at 37° C., 5% CO2. On day 8, the cell culture plates were taken out from incubator and equilibrated to room temperature, excess medium was pipetted from the wells so that 50 μL of supernatant was retained, and 50 μL of CellCounting-Lite 2.0 (Nanjing Vazyme Biotech Co., Ltd., Cat. No. DD1101) reagent was added per well, and the cells were fully lysed by shaking at room temperature for 10 min, and incubated for 5 min to detect the fluorescence intensity.
(§1) % Inhibition=100−(signal of the well with the compound to be tested−signal of the well with only medium and free of cells)/(signal of the well with cells but without addition of the compound−signal of the well with only medium and free of cells)×100.
(§2) The log value of concentration was used as the X-axis and % Inhibition was used as the Y-axis, so as to fit the dose-effect curve and calculate the IC50 value using nonlinear regression (dose response−variable slope) in the analysis software GraphPad Prism 8.

In experiment [2] the target is MAT2a (Homo sapiens (Human), UniProt P31153). The experiment can be described thus: MAT2a enzymatic activity test (colorimetric assay). The class given is biochemical. Conditions: OD620, 150 min reaction, read-out: IC50 against MAT2a. The protocol: The Colorimetric assay method was used to detect the IC50 value of the tested compounds on MAT2a.
Sequence of MAT2a (P31153 whole entry): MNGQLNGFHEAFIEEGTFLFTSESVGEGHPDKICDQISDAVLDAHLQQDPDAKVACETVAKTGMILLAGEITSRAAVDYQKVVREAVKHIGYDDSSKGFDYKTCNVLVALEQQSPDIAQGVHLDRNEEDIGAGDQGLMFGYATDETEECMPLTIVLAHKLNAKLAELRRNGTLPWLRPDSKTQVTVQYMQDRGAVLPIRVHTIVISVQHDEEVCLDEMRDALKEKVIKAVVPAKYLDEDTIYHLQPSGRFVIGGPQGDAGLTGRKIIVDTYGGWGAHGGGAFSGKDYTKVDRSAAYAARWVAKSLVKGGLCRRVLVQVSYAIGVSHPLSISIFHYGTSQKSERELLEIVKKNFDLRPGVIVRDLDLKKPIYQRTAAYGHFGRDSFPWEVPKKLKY
The specific steps were as follows: The compounds having the test starling concentration of 1 μM or 10 μM were diluted into 10 concentration points in a 3-fold gradient. 250 nL of the solutions of the compounds to be tested with 10 different concentrations were taken and added into a 384 well plate for later use. 20 μg/mL of MAT2a enzyme solution was prepared with Assay buffer (50 mM Tris, 50 mM KCl, 10 mM MgCl2, 0.05% polyoxyethylene lauryl ether, pH 8.0). 15 μL of the MAT2a enzyme solution at 20 μg/mL was add into the wells of the compounds to be tested at different concentrations; and 15 μL of Assay buffer was added into the negative control well. An incubation was carried out for 15 minutes after shaking for mixing well. A mixed substrate solution (comprising 400 μM ATP and 600 μM L-Methionine) was prepared with Assay buffer. 10 μL of the mixed substrate solution was added to the positive control well, the compound to be tested well, and the negative control well, respectively, and the reaction began, for a reaction time of 150 min. Then, 50 μL of the reaction stop solution (BIOMOL Green™ Reagent Enzo lifesciences, Cargo No. BML-AK111-1000) was added to stop the reaction, followed by being centrifuged at 1000 rpm for 60 s and then being incubated for 15 min. OD620 was read and data were processed.
By using the log value of the concentration as the X-axis and the inhibition % as the Y-axis, the IC50 value of each compound against enzyme activity was obtained through employing the log(inhibitor) vs. response-Variable slope fitting dose-effect curve of the analysis software GraphPad Prism 5.

Experiment [3] has as its system HCT116 MTAP-/- cells. Description: Activity test of HCT116 MTAP gene homozygous deletion cells (CellTiter-Glo). The class given is cell-based. Conditions: Homo sapiens, HCT-116, 120 h incubation, read-out: HCT116 MTAP-/- Cell IC50. Here is the method: On day 1, cell seeding: after digestion of the cells with trypsin, the cells were resuspended to the desired density with the complete medium (RPMI-1640 supplemented with 10% FBS; the brand of FBS is EXCELL, Cat. No. FND500; the brand of RPMI-1640 is ATCC, Cat. No. 30-2001), mixed evenly, and added into the 96-well plate at 100 μL/well with a cell density of 1000-3000 cells per well. The plate was put back to the incubator for the adherent growth of cells. On day 2, the addition of the compounds to be tested: before the addition of the compounds, the cells were starved with serum-free medium for 4 h, then the complete medium containing the corresponding concentration of compounds was added thereto, and the cells were incubated at 37° C., 5% CO2 for 120 h. On day 7, the cell culture plates were taken out from incubator and equilibrated to room temperature. 50 μL of CellTiter-Glo (Promega Company, Cat. No. G7571) reagent was added per well, and the cells were fully lysed by shaking at room temperature for 2 min, and then incubated for another 60 min to detect the fluorescence intensity. Calculation formula:
as §1
The fitting dose-effect curve of the analysis software GraphPad Prism 5 was used to give IC50 values of the individual compounds against cellular activity.
For orientation: ATP-based viability assays read luminescence as a measure of living cells.

For experiment [4], the system named is DOHH-2 cells. The experiment can be described thus: Inhibitory activity test of DOHH-2 cells. The class given is cell-based. Conditions: Homo sapiens, 120 h incubation, CellTiter-Glo, read-out: DOHH-2 cell inhibitory activity IC50. The protocol:
On day 1, cell seeding: cells were resuspended to the desired density with DMEM complete medium (Gibico, Cat. No. 10569010) supplemented with 10% FBS (Gibco, 10099141C), mixed evenly, and added into the 384-well plate at 30 μL/well with a cell density of 800/well. The compounds to be tested were added as follows: 30 nL of DMSO solution containing the compound (the concentration of the compound in which was formulated as: 3-fold gradient dilution from 10 mM, 10 concentration points in total) was added, incubated for 120 h at 37° C., 5% CO2. On day 6, the cells treated with compounds were removed and equilibrated to room temperature, 30 μL of CellTiter-Glo (Promega company, Cat. No. G7573) reagent was added per well, and the cells were fully lysed by shaking at room temperature, and then incubated in dark at 37° C., 5% CO2 for 30 min, to detect the fluorescence intensity.
% Inhibition=100−(signal of the well with the compound to be tested−signal of the well with only medium and free of cells)/(signal of the well with cells but without the addition of the compound−signal of the well with only medium and free of cells)×100.
as §2

The structures appear in SMILES notation.

Take `COCCn1cc2cc(-c3c(N)c4ccc(C(F)(F)F)nc4n(-c4ccc(Cl)cc4)c3=O)ccc2n1` [Example 48]: the IC50 turned out to be 170 nM in experiment [1], 16.1 nM in experiment [2], 13.3 nM in experiment [3] and 518 nM in experiment [4].

Turning to `Cn1cc2cc(-c3c(N)c4ccc(C(F)(F)F)nc4n(-c4ccc(Cl)cc4)c3=O)ccc2n1` [Example 25], the IC50 was 1220 nM in experiment [1], 13.3 nM in experiment [2], 13 nM in experiment [3] and 507 nM in experiment [4].

As for `COc1ccc(-c2c(N)c3ccc(C(F)(F)F)nc3n(-c3ccc(Cl)cc3)c2=O)cn1` [Example 20], the IC50 was 650 nM in experiment [1], 11.5 nM in experiment [2], 24.5 nM in experiment [3] and 48 nM in experiment [4].

Turning to `Nc1c(-c2ccc3ncncc3c2)c(=O)n(-c2ccc(Cl)cc2)c2nc(C(F)(F)F)ccc12` [Example 46], the IC50 turned out to be 180 nM in experiment [1], 15.1 nM in experiment [2], 20.2 nM in experiment [3] and 251 nM in experiment [4].

`Cn1cc(-c2c(N)c3ccc(C(F)(F)F)nc3n(-c3ccc(Cl)cc3)c2=O)ccc1=O` [Example 44]: the IC50 is 490 nM in experiment [1], 13.4 nM in experiment [2], 18.6 nM in experiment [3] and 495 nM in experiment [4].

Turning to `Cc1ccc(-n2c(=O)c(-c3ccco3)c(N)c3ccc(C(F)(F)F)nc32)cc1` [Example 31], the IC50 in experiment [2] came to 15.4 nM; in experiment [3], 13.4 nM; in experiment [4], 430 nM.

Take `Nc1c(-c2ccc3nonc3c2)c(=O)n(-c2ccc(Cl)cc2)c2nc(C(F)(F)F)ccc12` [Example 69]: the IC50 in experiment [2] came to 16.6 nM; in experiment [4], 663 nM.

Turning to `Nc1c(-c2ccc3ncsc3c2)c(=O)n(-c2ccc(Cl)cc2)c2nc(C(F)(F)F)ccc12` [Example 21], the IC50 was 270 nM in experiment [1], 16.2 nM in experiment [2], 22.9 nM in experiment [3] and 507 nM in experiment [4].

Take `COCCn1ncc2cc(-c3c(N)c4ccc(C(F)(F)F)nc4n(-c4ccc(Cl)cc4)c3=O)ccc21` [Example 47]: the IC50 worked out at 550 nM in experiment [1], 13.6 nM in experiment [2], 15.2 nM in experiment [3] and 559 nM in experiment [4].

For the origin of these results see patent US20240228491A1, “METHIONINE ADENOSYLTRANSFERASE INHIBITOR, PREPARATION METHOD THEREFOR AND APPLICATION THEREOF” (SCINNOHUB PHARMACEUTICAL CO., LTD., priority 2021, published 2024).
